Measured values reported in patent publication US20090053278A1, “ANTI-MICROBIAL COMPOSITIONS AND DEVICES AND METHODS OF USING THE SAME” (priority 2006, published 2009).
Values after ≈ are worked out from the molar mass of the structure shown. Where a SMILES comes first, the peptide text is derived from it.

Assays:
[1] = system: Staphylococcus aureus (University of Calgary clinical isolate, strain 2645) grown as a biofilm; experiment: MBEC of biofilm, MBEC device, 24 hour exposure; assay type: cell-based; settings: S. aureus biofilm, 10% MHB in PBS
Excerpt: (§1) The procedure provided describes an assay for testing 2 organisms (S. epidermidis and S. aureus) grown as a biofilm against 2 antimicrobial agents (gentamicin and an eCAP peptide) using a 96 well microtitre plate. The procedure will allow one to compare the MIC and MBEC values for each organism against each antimicrobial agent and against each other.
(§2) Microorganisms used were Staphylococcus epidermididis (RP62A; “Christensen Strain”) and Staphylococcus aureus (University of Calgary clinical isolate, strain 2645).
(§3) One set of test panels as shown above was prepared for each organism to determine the MIC and MBEC after a 24 hour exposure to each test material. SC wells are sterility controls for each experiment. GC is the growth control for each row. The working solution of gentamicin was 3 μmol/ml and 1 μmol/ml for eCAP. No SEM samples were taken for analysis due to test material shortage.
(§4) A working solution of eCAP or Gentamicin (1 μMoles/mL and 3 μMoles/mL respectively) was made in 10% MHB in sterile PBS. 200 μl of 10% MHB was added to ‘column’ 12 to serve as sterility controls (SC) and growth controls (GC) for each organism. 100 μl of 10% MHB was added to ‘columns’ 2 to 11. 200 μl of the appropriate working solution was added to ‘column’ 1 of the microtitre plate. 100 μl of the appropriate working solution was added to ‘column’ 2 and ‘column’ 3 of the microtitre plate. Using the multichannel micropipette, the contents of ‘column’ 3 was mixed by pipetting up and down. After mixing, 100 μl was transferred from the wells in ‘column’ 3 to the corresponding wells in ‘column’ 4. This was repeated until reaching ‘column’ 1. Using a pipet, 100 μl from each well in ‘column’ 11 was ejected. 100 μl of growth media was then added to all wells except A1 to H1, A2 to H2, and A12 to H12.
Antimicrobial Challenge of Biofilm: Rinse plate(s) of saline (200 μL per well) were prepared. Planktonic cells from biofilm that had formed on the lid of the MBEC device were rinsed by dipping the lid into the saline for 1-2 minutes. The lid was transferred to the challenge plate and incubated at 37° C. for 24 hours on a gyrating platform set at approximately 150 rpm.
Recovery of Surviving Biofilm: Rinse plate(s) of 0.9% sterile saline (200 μL per well) were prepared in a sterile 96 well micro titre plate. Pegs were rinsed in 0.9% sterile saline for 1 to 2 minutes. […] The recovery plates were incubated at 37° C. for 24 hours and read using the plate ready to determine MBEC values.
(§5) Therefore, 10% MHB was used as a diluent instead of TSB. […] The MIC and MBEC values were determined as the dilution immediately before the concentration where growth was first observed, as depicted in Table 9 below.

[2] = system: Staphylococcus epidermididis (RP62A; "Christensen Strain"); experiment: Planktonic MIC, MBEC device, 24 hour exposure; assay type: cell-based, Staphylococcus epidermidis; settings: S. epidermidis, 10% MHB in PBS
Excerpt: as §1, §2, §3
as §4, with “This was repeated until reaching ‘column’ 1. Using a pipet, 100 μl from each well in ‘column’ 11 was ejected. 100 μl of growth media was then added to all wells except A1 to H1, A2 to H2, and A12 to H12.” left out
Determination of Planktonic MIC: The challenge plate was incubated at 37° C. for 24 hours and read using a plate reader to determine MIC values. The MIC (minimum inhibitory concentration) was determined for compound eCAP/gentamicin for each organism shed from the biofilm during the challenge incubation. […]
as §5

Enterococcis faecalis = experiment: in-vitro assay of peptide-coated plastic endodontic obturators; assay type: cell-based; settings: peptide immobilized on plastic obturators; data not shown
Excerpt: Medical standard plastic endodontic obturators were coated with an antimicrobial peptide. […] The obturators were coated with a tie layer. A parylene coating containing a reactive molecule specific for the N-terminus region of the peptide (“Photopolymer”) was then applied over the tie layer. The peptide WLBU-2 (SEQ ID NO. 179) was applied to the parylene coating and exposed to UV light to facilitate covalent bonding of the peptide with the parylene coating. Non-coated obturators were used as controls. All samples and controls were subjected to ethylene oxide sterilization. The coated samples were placed in 75% relative humidity overnight.

[3] = antimicrobial activity retained after sterilization
Excerpt: In a useful embodiment of the present invention, the antimicrobial peptides may retain antibacterial activity after a device coated with the antimicrobial peptide is sterilized.

[4] = system: Staphylococcus epidermididis (RP62A; "Christensen Strain") grown as a biofilm; experiment: MBEC of biofilm, MBEC device, 24 hour exposure; assay type: cell-based, Staphylococcus epidermidis; settings: S. epidermidis biofilm, 10% MHB in PBS, listed as eCAP sterilized by ethylene oxide
Excerpt: as §1, §2
as §3, with “shortage. […]” for “shortage.”
Recovery of Surviving Biofilm: Rinse plate(s) of 0.9% sterile saline (200 μL per well) were prepared in a sterile 96 well micro titre plate. […] The recovery plates were incubated at 37° C. for 24 hours and read using the plate ready to determine MBEC values.
as §5

[5] = listed as eCAP sterilized by ethylene oxide

In the case of `CC(C)[C@H](NC(=O)[C@H](Cc1c[nH]c2ccccc12)NC(=O)[C@H](CCCNC(=N)N)NC(=O)[C@H](CCCNC(=N)N)NC(=O)[C@@H](NC(=O)[C@@H](NC(=O)[C@H](CCCNC(=N)N)NC(=O)[C@@H](NC(=O)[C@@H](NC(=O)[C@H](CCCNC(=N)N)NC(=O)[C@H](CCCNC(=N)N)NC(=O)[C@H](Cc1c[nH]c2ccccc12)NC(=O)[C@@H](NC(=O)[C@H](CCCNC(=N)N)NC(=O)[C@H](CCCNC(=N)N)NC(=O)[C@@H](NC(=O)[C@H](CCCNC(=N)N)NC(=O)[C@H](CCCNC(=N)N)NC(=O)[C@@H](NC(=O)[C@H](Cc1c[nH]c2ccccc12)NC(=O)[C@H](CCCNC(=N)N)NC(=O)[C@@H](N)CCCNC(=N)N)C(C)C)C(C)C)C(C)C)C(C)C)C(C)C)C(C)C)C(C)C)C(=O)N[C@@H](CCCNC(=N)N)C(=O)N[C@@H](CCCNC(=N)N)C(=O)O` [Low dose irradiated eCAP] (H-RRWVRRVRRVWRRVVRVVRRWVRR-OH; N-terminus and C-terminus assumed), the MBEC ([1]; listed as eCAP sterilized by low dose irradiation) is reported as “approximately 0.063 μmol/ml”.

Gentamicin [reference compound] gave an MIC [2] of 1500 µM and an MBEC [1] of 1.5 µmol/mL.

With `CC(C)[C@H](NC(=O)[C@H](Cc1c[nH]c2ccccc12)NC(=O)[C@H](CCCNC(=N)N)NC(=O)[C@H](CCCNC(=N)N)NC(=O)[C@@H](NC(=O)[C@@H](NC(=O)[C@H](CCCNC(=N)N)NC(=O)[C@@H](NC(=O)[C@@H](NC(=O)[C@H](CCCNC(=N)N)NC(=O)[C@H](CCCNC(=N)N)NC(=O)[C@H](Cc1c[nH]c2ccccc12)NC(=O)[C@@H](NC(=O)[C@H](CCCNC(=N)N)NC(=O)[C@H](CCCNC(=N)N)NC(=O)[C@@H](NC(=O)[C@H](CCCNC(=N)N)NC(=O)[C@H](CCCNC(=N)N)NC(=O)[C@@H](NC(=O)[C@H](Cc1c[nH]c2ccccc12)NC(=O)[C@H](CCCNC(=N)N)NC(=O)[C@@H](N)CCCNC(=N)N)C(C)C)C(C)C)C(C)C)C(C)C)C(C)C)C(C)C)C(C)C)C(=O)N[C@@H](CCCNC(=N)N)C(=O)N[C@@H](CCCNC(=N)N)C(=O)O` [WLBU-2, RRWVRRVRRVWRRVVRVVRRWVRR] (H-RRWVRRVRRVWRRVVRVVRRWVRR-OH; N-terminus and C-terminus assumed) the MIC ([2]; listed as eCAP) was 3.9 µM (≈ 13.3 µg/mL), the “efficacy against Enterococcis faecalis of immobilized peptide” value (Enterococcis faecalis) was “efficacy against Enterococcis faecalis” and the “effect of sterilization methods on antimicrobial activity” value ([3]; high and low dose gamma radiated and ethylene oxide, MIC/MBEC against S. aureus and S. epidermidis) was “not detrimental to its antimicrobial activity”. For the same compound, the “antimicrobial activity after ethylene oxide sterilization” value ([3]; peptide coated on a substrate) was “retained antimicrobial activity”.

In the case of `CC(C)[C@H](NC(=O)[C@H](Cc1c[nH]c2ccccc12)NC(=O)[C@H](CCCNC(=N)N)NC(=O)[C@H](CCCNC(=N)N)NC(=O)[C@@H](NC(=O)[C@@H](NC(=O)[C@H](CCCNC(=N)N)NC(=O)[C@@H](NC(=O)[C@@H](NC(=O)[C@H](CCCNC(=N)N)NC(=O)[C@H](CCCNC(=N)N)NC(=O)[C@H](Cc1c[nH]c2ccccc12)NC(=O)[C@@H](NC(=O)[C@H](CCCNC(=N)N)NC(=O)[C@H](CCCNC(=N)N)NC(=O)[C@@H](NC(=O)[C@H](CCCNC(=N)N)NC(=O)[C@H](CCCNC(=N)N)NC(=O)[C@@H](NC(=O)[C@H](Cc1c[nH]c2ccccc12)NC(=O)[C@H](CCCNC(=N)N)NC(=O)[C@@H](N)CCCNC(=N)N)C(C)C)C(C)C)C(C)C)C(C)C)C(C)C)C(C)C)C(C)C)C(=O)N[C@@H](CCCNC(=N)N)C(=O)N[C@@H](CCCNC(=N)N)C(=O)O` [Ethylene oxide eCAP] (H-RRWVRRVRRVWRRVVRVVRRWVRR-OH; N-terminus and C-terminus assumed), the MIC [2, 5] is reported as 3.9 µM (≈ 13.3 µg/mL), the MBEC [4] is reported as 0.0078 µmol/mL and the MBEC [1, 5] is reported as “approximately 0.0039 μmol/ml”.

In the case of `CC(C)[C@H](NC(=O)[C@H](Cc1c[nH]c2ccccc12)NC(=O)[C@H](CCCNC(=N)N)NC(=O)[C@H](CCCNC(=N)N)NC(=O)[C@@H](NC(=O)[C@@H](NC(=O)[C@H](CCCNC(=N)N)NC(=O)[C@@H](NC(=O)[C@@H](NC(=O)[C@H](CCCNC(=N)N)NC(=O)[C@H](CCCNC(=N)N)NC(=O)[C@H](Cc1c[nH]c2ccccc12)NC(=O)[C@@H](NC(=O)[C@H](CCCNC(=N)N)NC(=O)[C@H](CCCNC(=N)N)NC(=O)[C@@H](NC(=O)[C@H](CCCNC(=N)N)NC(=O)[C@H](CCCNC(=N)N)NC(=O)[C@@H](NC(=O)[C@H](Cc1c[nH]c2ccccc12)NC(=O)[C@H](CCCNC(=N)N)NC(=O)[C@@H](N)CCCNC(=N)N)C(C)C)C(C)C)C(C)C)C(C)C)C(C)C)C(C)C)C(C)C)C(=O)N[C@@H](CCCNC(=N)N)C(=O)N[C@@H](CCCNC(=N)N)C(=O)O` [High dose Irradiated eCAP] (H-RRWVRRVRRVWRRVVRVVRRWVRR-OH; N-terminus and C-terminus assumed), the MBEC ([1]; listed as eCAP sterilized by high dose irradiation) is reported as “approximately 0.016 μmol/ml”.
